Where “and” joins values, the source holds several entries; their conditions need not be identical. Equal values may be shown once. Inconclusive results and toxic doses are left out. Rule as the data show it: active = T/C of 150% or more; inactive = T/C below 125%.
Test system: L1210 leukemia ip in BDF1 mice, survival T/C
Test: NCI In Vivo Anticancer Drug Screen. Data for tumor model L1210 Leukemia (intraperitoneal) in B6D2F1 (BDF1) mice
Conditions: endpoint: mean survival time, higher = longer survival
Outline: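 In this screen, tumor-bearing mice given compound are compared to those given vehicle, and their survival values are reported as a treated-to-control quotient.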

[1] = dose: 50.0 mg/kg/injection, schedule: Q01DX009 (ip), vehicle: saline
[2] = dose: 50.0 mg/kg/injection, schedule: Q04DX003 (ip), vehicle: saline
[3] = dose: 100.0 mg/kg/injection, schedule: Q01DX009 (ip), vehicle: saline
[4] = dose: 100.0 mg/kg/injection, schedule: Q04DX003 (ip), vehicle: saline
[5] = dose: 200.0 mg/kg/injection, schedule: Q01DX009 (ip), vehicle: saline
[6] = dose: 200.0 mg/kg/injection, schedule: Q04DX003 (ip), vehicle: saline
[7] = dose: 12.5 mg/kg/injection, schedule: Q01DX009 (ip), vehicle: saline
[8] = dose: 25.0 mg/kg/injection, schedule: Q04DX003 (ip), vehicle: saline
[9] = dose: 100.0 mg/kg/injection, schedule: Q04DX003 (ip), vehicle: Klucel (hydroxypropylcellulose) (HPC)
[10] = dose: 200.0 mg/kg/injection, schedule: Q04DX003 (ip), vehicle: Klucel (hydroxypropylcellulose) (HPC)
[11] = dose: 400.0 mg/kg/injection, schedule: Q04DX003 (ip), vehicle: Klucel (hydroxypropylcellulose) (HPC)
[12] = dose: 50.0 mg/kg/injection, schedule: Q01DX009 (ip), vehicle: saline with Tween-80
[13] = dose: 100.0 mg/kg/injection, schedule: Q01DX009 (ip), vehicle: saline with Tween-80
[14] = dose: 200.0 mg/kg/injection, schedule: Q01DX009 (ip), vehicle: saline with Tween-80
[15] = dose: 100.0 mg/kg/injection, schedule: Q01DX009 (ip), vehicle: Klucel (hydroxypropylcellulose) (HPC)
[16] = dose: 200.0 mg/kg/injection, schedule: Q01DX009 (ip), vehicle: Klucel (hydroxypropylcellulose) (HPC)
[17] = dose: 400.0 mg/kg/injection, schedule: Q01DX009 (ip), vehicle: Klucel (hydroxypropylcellulose) (HPC)
[18] = dose: 100.0 mg/kg/injection, schedule: Q04DX003 (ip), vehicle: saline with Tween-80
[19] = dose: 200.0 mg/kg/injection, schedule: Q04DX003 (ip), vehicle: saline with Tween-80
[20] = dose: 400.0 mg/kg/injection, schedule: Q04DX003 (ip), vehicle: saline with Tween-80
[21] = dose: 100.0 mg/kg/injection, schedule: Q01DX001 (ip), vehicle: saline

Measured: T/C

CCN(CC)CCOB(OCCN(CC)CC)OCCN(CC)CC
inactive: [1] 95 % of control and 101 % of control | [2] 96 % of control | [3] 101 % of control and 110 % of control | dose: 100.0 mg/kg/injection, schedule: Q04DX002 (ip), vehicle: saline 101 % of control and 106 % of control | [4] 96 % of control | [5] 97 % of control and 103 % of control | dose: 200.0 mg/kg/injection, schedule: Q04DX002 (ip), vehicle: saline 101 % of control and 103 % of control | [6] 100 % of control | dose: 400.0 mg/kg/injection, schedule: Q04DX002 (ip), vehicle: saline 95 % of control

Cc1nc(Br)c2cnccn12
inactive: [7] 106 % of control | dose: 12.5 mg/kg/injection, schedule: Q04DX003 (ip), vehicle: saline 98 % of control | dose: 25.0 mg/kg/injection, schedule: Q01DX009 (ip), vehicle: saline 103 % of control | [8] 97 % of control | [2] 97 % of control

CC(C)(CNC1CCCC1)OC(=O)c1ccccc1
inactive: dose: 75.0 mg/kg/injection, schedule: Q01DX001 (ip), vehicle: saline 97 % of control and 95 % of control | dose: 150.0 mg/kg/injection, schedule: Q01DX001 (ip), vehicle: saline 107 % of control

C=CC1COC=C2CN3CCc4cc(OC)c(O)cc4C3CC21 (stereo not given)
inactive: [1] 100 % of control | [3] 104 % of control | [4] 100 % of control | [5] 98 % of control | [6] 101 % of control | dose: 400.0 mg/kg/injection, schedule: Q04DX003 (ip), vehicle: saline 97 % of control

COc1ccc(C(=S)N(C)c2ccccc2C)cc1
inactive: dose: 100.0 mg/kg/injection, schedule: Q01DX001 (ip), vehicle: Klucel (hydroxypropylcellulose) (HPC) 98 % of control | [9] 96 % of control | dose: 200.0 mg/kg/injection, schedule: Q01DX001 (ip), vehicle: Klucel (hydroxypropylcellulose) (HPC) 112 % of control | [10] 103 % of control | dose: 400.0 mg/kg/injection, schedule: Q01DX001 (ip), vehicle: Klucel (hydroxypropylcellulose) (HPC) 105 % of control | [11] 100 % of control

CCC(C)(CC)OC(N)=O
inactive: dose: 12.5 mg/kg/injection, schedule: Q01DX009 (ip), vehicle: saline with Tween-80 100 % of control | dose: 25.0 mg/kg/injection, schedule: Q01DX009 (ip), vehicle: saline with Tween-80 102 % of control | [8] 100 % of control | [12] 94 % of control | [2] 100 % of control | [13] 105 % of control | [4] 102 % of control | [14] 93 % of control | [6] 96 % of control

O=S(=O)(CCCBr)NC1CCCCC1
inactive: [15] 96 % of control | [16] 91 % of control | [17] 93 % of control

CCCCCCCCCCCCCCCCOC(=O)C[n+]1ccc(C(N)=O)cc1
inactive: dose: 100.0 mg/kg/injection, schedule: Q04DX003 (ip), vehicle: acetone 97 % of control | dose: 200.0 mg/kg/injection, schedule: Q04DX003 (ip), vehicle: acetone 90 % of control

COc1ccc(Cl)cc1NC(=O)c1cccc(C(=O)Nc2cc(Cl)ccc2OC)c1
inactive: [15] 92 % of control | [9] 94 % of control | [16] 93 % of control | [10] 94 % of control | [17] 104 % of control | [11] 92 % of control

[O]=[Cr](=[O])([OH])[O][Cr](=[O])(=[O])[OH]
inactive: dose: 6.25 mg/kg/injection, schedule: Q01DX009 (ip), vehicle: saline 104 % of control | [7] 97 % of control | [8] 108 % of control

CC(=O)c1ccccc1OCC(O)CN1CCN(c2cccc(C(F)(F)F)c2)CC1 (stereo not given)
inactive: [18] 106 % of control | [19] 108 % of control | [20] 108 % of control

C=C1C(=O)OC2CC3(C)C(O)CCC(=C)C3C(OC(C)=O)C12 (stereo not given) (tested in a mixture with another compound)
inactive: [21] 104 % of control

CC(C)SCC(N)CO (stereo not given)
inactive: dose: 12.5 mg/kg/injection, schedule: Q01DX009 (ip), vehicle: water 96 % of control | dose: 25.0 mg/kg/injection, schedule: Q01DX009 (ip), vehicle: water 96 % of control and 117 % of control | dose: 50.0 mg/kg/injection, schedule: Q01DX009 (ip), vehicle: water 99 % of control and 120 % of control | dose: 100.0 mg/kg/injection, schedule: Q01DX009 (ip), vehicle: water 100 % of control and 104 % of control | dose: 200.0 mg/kg/injection, schedule: Q01DX009 (ip), vehicle: water 108 % of control

Cc1ccc(C(=O)NCCCOc2ccc(N)cc2Cl)cc1S(=O)(=O)F
inactive: [12] 104 % of control | [13] 95 % of control | [18] 103 % of control | [14] 90 % of control | [19] 94 % of control | [20] 105 % of control

COc1ccc(OC)c(NC(=O)c2ccc(Cl)c(Cl)c2)c1
inactive: dose: 100.0 mg/kg/injection, schedule: Q01DX001 (ip), vehicle: saline with Tween-80 106 % of control | [13] 93 % of control and 98 % of control | dose: 100.0 mg/kg/injection, schedule: Q04DX002 (ip), vehicle: saline with Tween-80 97 % of control and 99 % of control | [18] 105 % of control | dose: 200.0 mg/kg/injection, schedule: Q01DX001 (ip), vehicle: saline with Tween-80 101 % of control | [14] 97 % of control and 102 % of control | dose: 200.0 mg/kg/injection, schedule: Q04DX002 (ip), vehicle: saline with Tween-80 108 % of control and 89 % of control | [19] 108 % of control | dose: 400.0 mg/kg/injection, schedule: Q01DX001 (ip), vehicle: saline with Tween-80 108 % of control | dose: 400.0 mg/kg/injection, schedule: Q01DX009 (ip), vehicle: saline with Tween-80 111 % of control | dose: 400.0 mg/kg/injection, schedule: Q04DX002 (ip), vehicle: saline with Tween-80 104 % of control and 91 % of control | [20] 89 % of control

C1CCC2C(C1)C2(N1CCCC1)N1CCCC1 (stereo not given)
inactive: dose: 6.25 mg/kg/injection, schedule: Q01DX009 (ip), vehicle: Klucel (hydroxypropylcellulose) (HPC) 101 % of control | dose: 12.5 mg/kg/injection, schedule: Q01DX009 (ip), vehicle: Klucel (hydroxypropylcellulose) (HPC) 100 % of control | dose: 12.5 mg/kg/injection, schedule: Q04DX003 (ip), vehicle: Klucel (hydroxypropylcellulose) (HPC) 98 % of control | dose: 25.0 mg/kg/injection, schedule: Q01DX009 (ip), vehicle: Klucel (hydroxypropylcellulose) (HPC) 93 % of control and 92 % of control | dose: 25.0 mg/kg/injection, schedule: Q04DX003 (ip), vehicle: Klucel (hydroxypropylcellulose) (HPC) 98 % of control | dose: 50.0 mg/kg/injection, schedule: Q04DX003 (ip), vehicle: Klucel (hydroxypropylcellulose) (HPC) 94 % of control

Nc1nc[nH]c1C(=O)NO
inactive: [21] 100 % of control | dose: 200.0 mg/kg/injection, schedule: Q01DX001 (ip), vehicle: saline 103 % of control | dose: 400.0 mg/kg/injection, schedule: Q01DX001 (ip), vehicle: saline 92 % of control

COc1cccc(NC(=O)NCCN(C)c2ccccc2)c1
inactive: [15] 104 % of control | [16] 88 % of control | [17] 92 % of control
